Experimental data published in patent US11685746B2, “Heteroaryl compounds for treating Huntington's disease” (PTC THERAPEUTICS, INC., priority 2018, dated 2023).

These molecules were tested on Endogenous Huntingtin Protein (assay: Endogenous Huntingtin Protein Assay (MSD plates, MW1 or MAB2166 capture antibody)). Conditions: Table 1.
Format: cell-based
Summary of the method: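 Endogenous huntingtin was captured overnight at 4° C on wells coated with 1 μg/mL MW1 (polyglutamine-specific) or MAB2166. Detection used rabbit #5656S and then goat anti-rabbit SULFO-TAG, both at 0.25 μg/mL and 1 h at room temperature. Plates were imaged on the MSD system in read buffer T.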
In the case of Cn1cc2cc(-c3nc4sc(N5CCNCC5)nc4s3)cc(C#N)c2n1 [Compound 7, 2-methyl-5-[5-(piperazin-1-yl)[1,3]thiazolo[5,4-d][1,3]thiazol-2-yl]-2H-indazole-7-carbonitrile], the IC50 is reported as 0.5 to 1 µM. CN(c1nc2sc(-c3cnc(-c4cnn(C)c4)cn3)nc2s1)C1CC(C)(C)NC(C)(C)C1 [Compound 94, N-methyl-5-[5-(1-methyl-1H-pyrazol-4-yl)pyrazin-2-yl]-N-(2,2,6,6-tetramethylpiperidin-4-yl)[1,3]thiazolo[5,4-d][1,3]thiazol-2-amine] gave an IC50 of at most 0.1 µM. Cn1ncc(-c2ccc(-c3nc4sc(OC5CC(C)(C)NC(C)(C)C5)nc4s3)c(O)c2)c1F [Compound 45, 5-(5-fluoro-1-methyl-1H-pyrazol-4-yl)-2-{5-[(2,2,6,6-tetramethylpiperidin-4-yl)oxy][1,3]thiazolo[5,4-d][1,3]thiazol-2-yl}phenol] gave an IC50 of at most 0.1 µM. In the case of C[C@H]1C[C@H](N(C)c2nc3sc(-c4ncc(-c5cn[nH]c5)c5cc[nH]c45)nc3s2)CCN1 [Compound 75, N-methyl-N-[(2S,4R)-2-methylpiperidin-4-yl]-5-[4-(1H-pyrazol-4-yl)-1H-pyrrolo[2,3-c]pyridin-7-yl][1,3]thiazolo[5,4-d][1,3]thiazol-2-amine], the IC50 is reported as at most 0.1 µM. CN(c1nc2sc(-c3ncc(-c4cn[nH]c4F)cc3O)nc2s1)C1CCNCC1 [Compound 53, 5-(5-fluoro-1H-pyrazol-4-yl)-2-{5-[methyl(piperidin-4-yl)amino][1,3]thiazolo[5,4-d][1,3]thiazol-2-yl}pyridin-3-ol] showed an IC50 of at most 0.1 µM. In the case of CN(c1nc2sc(-c3ncc(-c4cn[nH]c4)cn3)nc2s1)[C@H]1CCCNC1 [Compound 161, N-methyl-N-[(3S)-piperidin-3-yl]-5-[5-(1H-pyrazol-4-yl)pyrimidin-2-yl][1,3]thiazolo[5,4-d][1,3]thiazol-2-amine], the IC50 is reported as 0.1 to 0.5 µM. Oc1cc(-c2cn[nH]c2)ccc1-c1nc2sc(NC3CC4CCC(C3)N4)nc2s1 (stereo not drawn) [Compound 13, 2-{5-[(3-exo)-8-azabicyclo[3.2.1]oct-3-ylamino][1,3]thiazolo[5,4-d][1,3]thiazol-2-yl}-5-(1H-pyrazol-4-yl)phenol] was tested, and the IC50 was at most 0.1 µM. CN(c1nc2sc(-c3ncc(-c4cn[nH]c4)nn3)nc2s1)C1CC(C)(C)NC(C)(C)C1 [Compound 100, N-methyl-5-[6-(1H-pyrazol-4-yl)-1,2,4-triazin-3-yl]-N-(2,2,6,6-tetramethylpiperidin-4-yl)[1,3]thiazolo[5,4-d][1,3]thiazol-2-amine] gave an IC50 of at most 0.1 µM. In the case of CN(c1nc2sc(-c3ncc(-n4cc(F)cn4)cc3O)nc2s1)[C@@H]1C[C@H]2CC[C@@H](C1)N2 [Compound 193, 2-(5-{[(1R,3s,5S)-8-azabicyclo[3.2.1]octan-3-yl](methyl)amino}[1,3]thiazolo[5,4-d][1,3]thiazol-2-yl)-5-(4-fluoro-1H-pyrazol-1-yl)pyridin-3-ol], the IC50 is reported as at most 0.1 µM. Work on CN(c1nc2sc(-c3ccc(-c4cn[nH]c4)c4cn[nH]c34)nc2s1)C1CC(C)(C)NC(C)(C)C1 [Compound 107, N-methyl-5-[4-(1H-pyrazol-4-yl)-1H-indazol-7-yl]-N-(2,2,6,6-tetramethylpiperidin-4-yl)[1,3]thiazolo[5,4-d][1,3]thiazol-2-amine] yielded an IC50 of at most 0.1 µM. Molecule CN(c1nc2sc(-c3ncc(-c4cn[nH]c4)c4cc[nH]c34)nc2s1)C1CCNCC1 [Compound 139, N-methyl-N-(piperidin-4-yl)-5-[4-(1H-pyrazol-4-yl)-1H-pyrrolo[2,3-c]pyridin-7-yl][1,3]thiazolo[5,4-d][1,3]thiazol-2-amine] has an IC50 of at most 0.1 µM. CN(c1nc2sc(-c3cnc(-c4cn[nH]c4)c4[nH]ccc34)nc2s1)C1CCNCC1 [Compound 226, N-methyl-N-(piperidin-4-yl)-5-[7-(1H-pyrazol-4-yl)-1H-pyrrolo[2,3-c]pyridin-4-yl][1,3]thiazolo[5,4-d][1,3]thiazol-2-amine] showed an IC50 of at most 0.1 µM. Work on CN(c1nc2sc(-c3ccc(-c4ccn(C)c(=O)c4)cc3O)nc2s1)C1CC(C)(C)NC(C)(C)C1 [Compound 46] yielded an IC50 of at most 0.1 µM. CN(c1nc2sc(-c3ncc(-n4cncn4)cc3O)nc2s1)C1CCNCC1 [Compound 212, 2-{5-[methyl(piperidin-4-yl)amino][1,3]thiazolo[5,4-d][1,3]thiazol-2-yl}-5-(1H-1,2,4-triazol-1-yl)pyridin-3-ol] gave an IC50 of 0.1 to 0.5 µM. CN(c1nc2sc(-c3ncc(-n4cc(F)cn4)cc3O)nc2s1)C1CCNCC1 [Compound 62, 5-(4-fluoropyrazol-1-yl)-2-[5-[methyl(4-piperidyl)amino]thiazolo[5,4-d]thiazol-2-yl]pyridin-3-ol] was tested, and the IC50 was 1 to 3 µM. For CN(c1nc2sc(-n3ccc(-c4cn[nH]c4)cc3=O)nc2s1)[C@@H]1CCCNC1 [Compound 155, 1-(5-{methyl[(3R)-piperidin-3-yl]amino}[1,3]thiazolo[5,4-d][1,3]thiazol-2-yl)-4-(1H-pyrazol-4-yl)pyridin-2(1H)-one], the IC50 was 0.1 to 0.5 µM. CC1CC(N(C)c2nc3sc(-c4ncc(-c5cn[nH]c5)cc4O)nc3s2)CCN1C (stereo not drawn) [Compound 182, 2-{5-[(1,2-dimethylpiperidin-4-yl)(methyl)amino][1,3]thiazolo[5,4-d][1,3]thiazol-2-yl}-5-(1H-pyrazol-4-yl)pyridin-3-ol] showed an IC50 of at most 0.1 µM. For CN(c1nc2sc(-c3ncc(-c4cncs4)cc3O)nc2s1)C1CCNCC1 [Compound 64, 5-(thiazol-5-yl)-2-{5-[methyl(piperidin-4-yl)amino][1,3]thiazolo[5,4-d][1,3]thiazol-2-yl}pyridin-3-ol], the IC50 was 0.1 to 0.5 µM. With CCCN1CCC(N(C)c2nc3sc(-c4ncc(-c5cn[nH]c5)cc4O)nc3s2)CC1 [Compound 206, 2-{5-[methyl(1-propylpiperidin-4-yl)amino][1,3]thiazolo[5,4-d][1,3]thiazol-2-yl}-5-(1H-pyrazol-4-yl)pyridin-3-ol] the IC50 was at most 0.1 µM. With CN(c1nc2sc(-c3ccc(-c4cn[nH]c4)cc3)nc2s1)[C@@H]1C[C@H]2CC[C@@H](C1)N2 [Compound 141, N-[(1R,3s,5S)-8-azabicyclo[3.2.1]octan-3-yl]-N-methyl-5-[4-(1H-pyrazol-4-yl)phenyl][1,3]thiazolo[5,4-d][1,3]thiazol-2-amine] the IC50 was at most 0.1 µM. Molecule CN(c1nc2sc(-n3cnc(-c4cn[nH]c4)cc3=O)nc2s1)[C@@H]1C[C@H]2CC[C@@H](C1)N2C [Compound 153, 3-(5-{methyl[(1R,3s,5S)-8-methyl-8-azabicyclo[3.2.1]octan-3-yl]amino}[1,3]thiazolo[5,4-d][1,3]thiazol-2-yl)-6-(1H-pyrazol-4-yl)pyrimidin-4(3H)-one] has an IC50 of at most 0.1 µM. For CC1CC(N(C)c2nc3sc(-c4ccc(-c5cn[nH]c5)c5nc[nH]c45)nc3s2)CCN1C (stereo not drawn) [Compound 112, N-(1,2-dimethylpiperidin-4-yl)-N-methyl-5-[4-(1H-pyrazol-4-yl)-1H-benzimidazol-7-yl][1,3]thiazolo[5,4-d][1,3]thiazol-2-amine], the IC50 was at most 0.1 µM. Molecule Cc1cn2cc(-c3nc4sc(C5=CCNCC5)nc4s3)nc2c(C)n1 [Compound 41, 6,8-dimethyl-2-[5-(1,2,3,6-tetrahydropyridin-4-yl)[1,3]thiazolo[5,4-d][1,3]thiazol-2-yl]imidazo[1,2-a]pyrazine] has an IC50 of 0.1 to 0.5 µM. Molecule CN1CCC2(CC1)CN(c1nc3sc(-c4ncc(-c5cn[nH]c5)cc4O)nc3s1)C2 [Compound 196, 2-[5-(7-methyl-2,7-diazaspiro[3.5]nonan-2-yl)[1,3]thiazolo[5,4-d][1,3]thiazol-2-yl]-5-(1H-pyrazol-4-yl)pyridin-3-ol] has an IC50 of at most 0.1 µM. In the case of COc1cc(-c2nc3sc(C4CCNCC4)nc3s2)cc2cn(C)nc12 [Compound 26, 7-methoxy-2-methyl-5-[5-(piperidin-4-yl)[1,3]thiazolo[5,4-d][1,3]thiazol-2-yl]-2H-indazole], the IC50 is reported as at most 0.1 µM. With Cn1cc2cc(-c3cn4nc(C5CCNCC5)sc4n3)cc(C#N)c2n1 [Compound 32, 2-methyl-5-[2-(piperidin-4-yl)imidazo[2,1-b][1,3,4]thiadiazol-6-yl]-2H-indazole-7-carbonitrile] the IC50 was 0.1 to 0.5 µM. In the case of Cn1cc2cc(-c3nc4sc(N5CC6(CCNCC6)C5)nc4s3)cc(F)c2n1 [Compound 176, 5-[5-(2,7-diazaspiro[3.5]nonan-2-yl)[1,3]thiazolo[5,4-d][1,3]thiazol-2-yl]-7-fluoro-2-methyl-2H-indazole], the IC50 is reported as 0.1 to 0.5 µM. CN(c1nc2sc(-c3ccc(-c4cn[nH]c4)cc3O)nc2s1)[C@@H]1CCNC1 [Compound 55, 2-(5-{methyl[(3R)-pyrrolidin-3-yl]amino}[1,3]thiazolo[5,4-d][1,3]thiazol-2-yl)-5-(1H-pyrazol-4-yl)phenol] showed an IC50 of at most 0.1 µM. With CN(c1nc2sc(-c3ncc(-c4cn[nH]c4)cc3O)nc2s1)C1CCN(C2CC2)CC1 [Compound 204, 2-{5-[(1-cyclopropylpiperidin-4-yl)(methyl)amino][1,3]thiazolo[5,4-d][1,3]thiazol-2-yl}-5-(1H-pyrazol-4-yl)pyridin-3-ol] the IC50 was 0.1 to 0.5 µM. In the case of CCn1cc(-c2cnc(-c3nc4sc(N(C)C5CCNCC5)nc4s3)c(O)c2)cn1 [Compound 52, 5-(1-ethyl-1H-pyrazol-4-yl)-2-{5-[methyl(piperidin-4-yl)amino][1,3]thiazolo[5,4-d][1,3]thiazol-2-yl}pyridin-3-ol], the IC50 is reported as 1 to 3 µM. In the case of CN(c1nc2sc(-c3ncc(-c4cn[nH]c4)c4cc[nH]c34)nc2s1)[C@@H]1C[C@H]2CC[C@@H](C1)N2 [Compound 184, N-[(1R,3s,5S)-8-azabicyclo[3.2.1]octan-3-yl]-N-methyl-5-[4-(1H-pyrazol-4-yl)-1H-pyrrolo[2,3-c]pyridin-7-yl][1,3]thiazolo[5,4-d][1,3]thiazol-2-amine], the IC50 is reported as at most 0.1 µM. Work on C[C@H]1C[C@@H](N(C)c2nc3sc(-c4cnc(-c5cn[nH]c5)cn4)nc3s2)CCN1 [Compound 99, N-methyl-N-[(2S,4S)-2-methylpiperidin-4-yl]-5-[5-(1H-pyrazol-4-yl)pyrazin-2-yl][1,3]thiazolo[5,4-d][1,3]thiazol-2-amine] yielded an IC50 of 0.5 to 1 µM. Cc1cn2cc(-c3nc4sc(C5CCNCC5)nc4s3)nc2c(C)n1 [Compound 44, 6,8-dimethyl-2-[5-(piperidin-4-yl)[1,3]thiazolo[5,4-d][1,3]thiazol-2-yl]imidazo[1,2-a]pyrazine] was tested, and the IC50 was 1 to 3 µM.
